Data reported in patent US12018021B2 (UCB Biopharma SRL, priority 2018, dated 2024).

target: IgE-Tb / FcεRIα-Y131A-AF488 (Homo sapiens, UniProt P01854); test: IgE-Tb / FcεRIα-Y131A-AF488 FRET assay (protocol for examples 1 to 233); type: binding; details: examples 1 to 233: 5 nM IgE-Tb, 25 nM FcεRIα-Y131A-AF488, incubated 2 hours at room temperature; read-out: Y131A FRET IC50 range
In short: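 Compounds (top final concentration usually 10 μM, 3-fold, 10 points, 2% DMSO) incubated 2 h at room temperature with IgE-Tb (5 nM) and FcεRIα-Y131A-AF488 (25 nM). Background from 200 nM unlabelled receptor subtracted; FRET ratio 520/495 nm after 330 nm excitation gave percent inhibition, fitted four-parameter for IC50.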

IgE-Tb / FcεRIα-Y131A-AF488, sequence (P01854 1-427 limits assumed, stated change not applied): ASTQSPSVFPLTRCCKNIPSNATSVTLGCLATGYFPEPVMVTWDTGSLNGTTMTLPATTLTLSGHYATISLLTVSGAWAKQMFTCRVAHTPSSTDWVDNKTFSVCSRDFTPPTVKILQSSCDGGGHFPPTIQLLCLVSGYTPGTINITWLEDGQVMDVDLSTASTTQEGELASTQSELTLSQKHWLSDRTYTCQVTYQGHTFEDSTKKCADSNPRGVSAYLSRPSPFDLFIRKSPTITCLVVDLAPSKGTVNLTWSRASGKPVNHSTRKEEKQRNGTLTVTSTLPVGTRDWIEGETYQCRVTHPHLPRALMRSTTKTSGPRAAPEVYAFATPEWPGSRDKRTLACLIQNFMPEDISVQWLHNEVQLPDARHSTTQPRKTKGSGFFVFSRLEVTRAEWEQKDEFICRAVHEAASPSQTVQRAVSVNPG

SMILES | IC50 [nM]
CCOC(=O)c1ncn([C@H]2CCc3sc(NC(=O)C4CC4)c(C(=O)NCC4CC4)c3C2)c1N [Example 117, Ethyl 5-amino-1-[(5S)-2-(cyclopropanecarbonylamino)-3-(cyclopropylmethylcarbamoyl)-4,5,6,7-tetrahydrobenzothiophen-5-yl]imidazole-4-carboxylate] | < 1000
O=C(NCC1CC1)c1c(NC(=O)C2CC2)sc2c1CC(Nc1noc(=O)[nH]1)CC2 (centres unmarked) [Example 119, 2-(Cyclopropanecarbonylamino)-N-(cyclopropylmethyl)-5-[(5-oxo-4H-1,2,4-oxadiazol-3-yl)amino]-4,5,6,7-tetrahydrobenzothiophene-3-carboxamide] | < 1000
CCNc1c(NC2CCc3sc(NC(=O)C4CC4)c(C(=O)NCC4CC4)c3C2)c(=O)c1=O (centres unmarked) [Example 120, 2-(Cyclopropanecarbonylamino)-N-(cyclopropylmethyl)-5-[[2-(ethylamino)-3,4-dioxo-cyclobuten-1-yl]amino]-4,5,6,7-tetrahydrobenzothiophene-3-carboxamide] | < 1000
N#CN=C(NCC(F)(F)F)NC1CCc2sc(NC(=O)C3CC3)c(C(=O)NCC3CC3)c2C1 (centres unmarked) [Example 121, 5-[[N′-cyano-N-(2,2,2-trifluoroethyl)carbamimidoyl]amino]-2-(cyclopropanecarbonylamino)-N-(cyclopropylmethyl)-4,5,6,7-tetrahydrobenzothiophene-3-carboxamide] | < 1000
CCNc1nncn1[C@H]1CCc2sc(NC(=O)C3CC3)c(C(=O)NCC3CC3)c2C1 [Example 122, (5S)-2-(cyclopropanecarbonylamino)-N-(cyclopropylmethyl)-5-[3-(ethylamino)-1,2,4-triazol-4-yl]-4,5,6,7-tetrahydrobenzothiophene-3-carboxamide] | < 1000
CCNC(=N[N+](=O)[O-])NC1CCc2sc(NC(=O)C3CC3)c(C(=O)NCC3CC3)c2C1 (centres unmarked) [Example 123, 2-(cyclopropanecarbonylamino)-N-(cyclopropylmethyl)-5-[(N-ethyl-N′-nitro-carbamimidoyl)amino]-4,5,6,7-tetrahydrobenzothiophene-3-carboxamide] | < 1000
O=C(NCC1CC1)c1c(NC(=O)C2CC2)sc2c1C[C@@H](n1cnnc1Nc1cccnc1)CC2 [Example 124, (5S)-2-(Cyclopropanecarbonylamino)-N-(cyclopropylmethyl)-5-[3-(3-pyridylamino)-1,2,4-triazol-4-yl]-4,5,6,7-tetrahydrobenzothiophene-3-carboxamide] | < 1000
O=C(NCC1CC1)c1c(NC(=O)C2CC2)sc2c1C[C@@H](n1cnnc1Nc1ccc[n+]([O-])c1)CC2 [Example 125, (5S)-2-(Cyclopropanecarbonylamino)-N-(cyclopropylmethyl)-5-[3-[(1-oxidopyridin-1-ium-3-yl)amino]-1,2,4-triazol-4-yl]-4,5,6,7-tetrahydrobenzothiophene-3-carboxamide] | < 1000
Cc1ccc(NC(=N[N+](=O)[O-])NC2CCc3sc(NC(=O)C4CC4)c(C(=O)NCC4CC4)c3C2)cc1 (centres unmarked) [Example 126, 2-(cyclopropanecarbonylamino)-N-(cyclopropylmethyl)-5-[[N′-nitro-N-(p-tolyl)carbamimidoyl]amino]-4,5,6,7-tetrahydrobenzothiophene-3-carboxamide] | < 1000
O=C(NCC1CC1)c1c(NC(=O)C2CC2)sc2c1C[C@@H](n1ccnc1Nc1cccnc1)CC2 [Example 127, (5S)-2-(Cyclopropanecarbonylamino)-N-(cyclopropylmethyl)-5-[2-(3-pyridylamino)imidazol-1-yl]-4,5,6,7-tetrahydrobenzothiophene-3-carboxamide] | < 1000
O=C(NCC1CC1)c1c(NC(=O)C2CC2)sc2c1C[C@@H](n1cnnc1NCC1CC1)CC2 [Example 130, (5S)-2-(Cyclopropanecarbonylamino)-N-(cyclopropylmethyl)-5-[3-(cyclopropylmethylamino)-1,2,4-triazol-4-yl]-4,5,6,7-tetrahydrobenzothiophene-3-carboxamide] | < 1000
Cc1cc(NC(=S)N[C@H]2CCc3sc(NC(=O)C4CC4)c(C(=O)NCC4CC4)c3C2)n(C)n1 [Example 131, (5S)-2-(Cyclopropanecarbonylamino)-N-(cyclopropylmethyl)-5-[(2,5-dimethylpyrazol-3-yl)carbamothioylamino]-4,5,6,7-tetrahydrobenzothiophene-3-carboxamide] | < 1000
O=C(NCC1CC1)c1c(NC(=O)C2CC2)sc2c1C[C@@H](n1cnnc1Nc1cncnc1)CC2 [Example 132, (5S)-2-(Cyclopropanecarbonylamino)-N-(cyclopropylmethyl)-5-[3-(pyrimidin-5-ylamino)-1,2,4-triazol-4-yl]-4,5,6,7-tetrahydrobenzothiophene-3-carboxamide] | < 1000
O=C(NCC1CC1)c1c(NC(=O)C2CC2)sc2c1C[C@@H](n1ccnc1NCC1CC1)CC2 [Example 133, (5S)-2-(Cyclopropanecarbonylamino)-N-(cyclopropylmethyl)-5-[2-(cyclopropylmethylamino)imidazol-1-yl]-4,5,6,7-tetrahydrobenzothiophene-3-carboxamide] | < 1000
CCNC1=NS(=O)(=O)N=C1NC1CCc2sc(NC(=O)C3CC3)c(C(=O)NCC3CC3)c2C1 (centres unmarked) [Example 134, 2-(Cyclopropanecarbonylamino)-N-(cyclopropylmethyl)-5-[[4-(ethylamino)-1,1-dioxo-1,2,5-thiadiazol-3-yl]amino]-4,5,6,7-tetrahydrobenzothiophene-3-carboxamide] | < 1000
Cc1ccc(NC(=C[N+](=O)[O-])NC2CCc3sc(NC(=O)C4CC4)c(C(=O)NCC4CC4)c3C2)cc1 (centres unmarked) [Example 135, 2-(cyclopropanecarbonylamino)-N-(cyclopropylmethyl)-5-[[1-(4-methylanilino)-2-nitro-vinyl]amino]-4,5,6,7-tetrahydrobenzothiophene-3-carboxamide] | < 1000
CCNC(=NC#N)N(C)[C@H]1CCc2sc(NC(=O)C3CC3)c(C(=O)NCC3CC3)c2C1 [Example 136, (5S)-5-[(N′-cyano-N-ethyl-carbamimidoyl)-methyl-amino]-2-(cyclopropanecarbonylamino)-N-(cyclopropylmethyl)-4,5,6,7-tetrahydrobenzothiophene-3-carboxamide] | < 1000
Cc1ccc(Nc2c(NC3CCc4sc(NC(=O)C5CC5)c(C(=O)NCC5CC5)c4C3)c(=O)c2=O)cc1 (centres unmarked) [Example 137, 2-(Cyclopropanecarbonylamino)-N-(cyclopropylmethyl)-5-[[2-(4-methylanilino)-3,4-dioxo-cyclobuten-1-yl]amino]-4,5,6,7-tetrahydrobenzothiophene-3-carboxamide] | < 1000
O=C(NCC1CC1)c1c(NC(=O)C2CC2)sc2c1C[C@@H](n1cnnc1Nc1ccccn1)CC2 [Example 138, (5S)-2-(Cyclopropanecarbonylamino)-N-(cyclopropylmethyl)-5-[3-(2-pyridylamino)-1,2,4-triazo-4-yl]-4,5,6,7-tetrahydrobenzothiophene-3-carboxamide] | < 1000
CC(=O)Nc1nccn1[C@H]1CCc2sc(NC(=O)C3CC3)c(C(=O)NCC3CC3)c2C1 [Example 139, (5S)-5-(2-Acetamidoimidazol-1-yl)-2-(cyclopropanecarbonylamino)-N-(cyclopropylmethyl)-4,5,6,7-tetrahydrobenzothiophene-3-carboxamide] | < 1000
